Results: ChEMBL document CHEMBL3751783, “Straightforward and effective synthesis of γ-aminobutyric acid transporter subtype 2-selective acyl-substituted azaspiro[4.5]decanes” (Bioorg Med Chem Lett, 2016)

What was measured:
Assay type in all cases: cell-based
GABA transporter 3 = target: T1, GABA transporter 3 (Mus musculus, UniProt P31649); assay: Inhibition of mouse GAT2 mediated [3]GABA uptake expressed in HEK293 cells after 3 mins by scintillation counting
T1 sequence (P31649 whole entry): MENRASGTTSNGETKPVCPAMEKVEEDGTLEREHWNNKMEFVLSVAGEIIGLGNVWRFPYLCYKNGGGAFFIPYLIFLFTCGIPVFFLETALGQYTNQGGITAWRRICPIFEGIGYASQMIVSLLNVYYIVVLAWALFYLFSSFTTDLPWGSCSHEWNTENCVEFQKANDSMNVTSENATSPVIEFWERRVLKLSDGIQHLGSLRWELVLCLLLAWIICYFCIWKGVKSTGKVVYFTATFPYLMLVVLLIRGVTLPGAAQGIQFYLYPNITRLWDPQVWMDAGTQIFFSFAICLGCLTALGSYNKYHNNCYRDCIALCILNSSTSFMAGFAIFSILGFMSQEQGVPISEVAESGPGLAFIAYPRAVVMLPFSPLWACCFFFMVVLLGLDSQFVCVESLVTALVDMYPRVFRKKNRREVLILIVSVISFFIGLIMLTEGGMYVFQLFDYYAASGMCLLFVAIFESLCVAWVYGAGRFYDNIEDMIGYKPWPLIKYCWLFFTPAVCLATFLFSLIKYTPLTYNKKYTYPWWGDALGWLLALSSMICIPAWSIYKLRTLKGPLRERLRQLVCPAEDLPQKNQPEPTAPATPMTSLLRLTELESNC

[1] = target: Sodium- and chloride-dependent GABA transporter 1 (Mus musculus, UniProt P31648); assay: Inhibition of mouse GAT1 mediated [3]GABA uptake expressed in HEK293 cells after 3 mins by scintillation counting
GABA transporter 2 = target: T2, GABA transporter 2 (Mus musculus, UniProt P31651); assay: Inhibition of mouse BGT1 mediated [3]GABA uptake expressed in HEK293 cells after 3 mins by scintillation counting
T2 sequence (P31651 whole entry): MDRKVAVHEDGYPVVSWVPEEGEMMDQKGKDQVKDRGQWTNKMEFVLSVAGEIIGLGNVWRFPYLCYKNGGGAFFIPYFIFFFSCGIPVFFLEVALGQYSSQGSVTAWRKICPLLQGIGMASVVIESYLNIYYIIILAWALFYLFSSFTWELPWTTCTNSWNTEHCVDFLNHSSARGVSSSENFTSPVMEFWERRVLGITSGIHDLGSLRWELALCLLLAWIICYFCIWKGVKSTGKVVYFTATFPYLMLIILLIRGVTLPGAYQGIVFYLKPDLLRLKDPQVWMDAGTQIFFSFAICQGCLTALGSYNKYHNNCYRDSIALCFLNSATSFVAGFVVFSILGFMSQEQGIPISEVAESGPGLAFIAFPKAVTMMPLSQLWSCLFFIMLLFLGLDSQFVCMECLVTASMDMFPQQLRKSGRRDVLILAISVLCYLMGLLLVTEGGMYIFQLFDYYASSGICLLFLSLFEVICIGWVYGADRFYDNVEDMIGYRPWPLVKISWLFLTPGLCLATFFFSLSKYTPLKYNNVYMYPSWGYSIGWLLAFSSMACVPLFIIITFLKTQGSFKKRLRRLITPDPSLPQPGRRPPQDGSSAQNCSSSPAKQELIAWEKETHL

SMILES | IC50 (GABA transporter 3) [mM] | IC50 [1] [mM] | IC50 (GABA transporter 2) [mM]
O=C1CCC2(CCCCC2)N1 | > 5 | > 5 | > 5
[N-]=[N+]=NCC(=O)N1C(=O)CCC12CCCCC2 | > 1 | > 1 | > 1
O=C(CCN1CCCCC1)N1CCCC12CCCCC2 | > 5 | > 5 | > 5
CCN(CC)CCC(=O)N1CCCC12CCCCC2 | > 1 | > 1 | > 1
O=C(CCN1CCCCC1)N1C(=O)CCC12CCCCC2 | > 1 | > 1 | > 1
O=C(CBr)N1C(=O)CCC12CCCCC2 | > 1 | 0.371 | 0.103
O=C(O)C1=CCCN(CCON=C(c2ccccc2)c2ccccc2)C1 | > 1 | 0.00018 | > 1
COC(=O)C1=CCCN(CCC(=O)N2CCCC23CCCCC3)C1 | 3.23 | 2.05 | 2.3
O=C(CCN1CCNCC1)N1CCCC12CCCCC2 | > 1 | > 1 | > 1
O=C(CI)N1C(=O)CCC12CCCCC2 | > 1 | > 1 | > 1
O=C1C=CC2(CCCC23OCCO3)N1C(=O)CCN1CCOCC1 (stereo not given) | > 1 | > 1 | > 1
C1CCC2(CC1)CCCN2 | > 5 | > 5 | > 5
C=CC(=O)N1C(=O)CCC12CCCCC2=O (stereo not given) | > 1 | > 1 | > 1
CCOC(=O)C1CCCN(CCC(=O)N2C(=O)C=CC23CCCC32OCCO2)C1 (stereo not given) | > 1 | > 1 | > 1
O=C(O)C1=CCCNC1 [GUVACINE] | 0.0724 | 0.0209 | > 1
CCOC(=O)C1CCCN(CCC(=O)N2CCCC23CCCCC3)C1 (stereo not given) | 2.33 | > 5 | > 5
C=CC(=O)N1C(=O)CCC12CCCCC2 | > 1 | 0.371 | 0.103

SMILES | IC50 (GABA transporter 3) [mM] | IC50 [1] [mM] | IC50 (GABA transporter 2) [mM]
COc1ccc(C(OCCN2CCC[C@H](C(=O)O)C2)(c2ccc(OC)cc2)c2ccc(OC)cc2)cc1 | – | – | > 1
CCN(CC)CCC(=O)N1C(=O)CCC12CCCCC2 | > 1 | > 1 | > 1
O=C1CCC2(CCCCC2=O)N1 (stereo not given) | > 1 | > 1 | > 1
O=C(CCN1CCOCC1)N1C(=O)CCC12CCCCC2 | > 1 | > 1 | > 1
CCOC(=O)C1CCCN(CCC(=O)N2C(=O)CCC23CCCCC3)C1 (stereo not given) | > 1 | > 1 | 0.164
O=C(CBr)N1CCCC12CCCCC2 | > 5 | 0.233 | > 5
O=C(CCN1CCOCC1)N1CCCC12CCCCC2 | > 5 | > 5 | > 5
O=C(CCN1CCCC1)N1C(=O)CCC12CCCCC2 | > 1 | > 1 | > 1
O=C(CBr)N1C(=O)CCC12CCCCC2=O (stereo not given) | > 1 | > 1 | > 1
O=C(CCN1CCNCC1)N1C(=O)CCC12CCCCC2 | > 1 | > 1 | > 1
O=C(CCl)N1C(=O)CCC12CCCCC2 | > 1 | > 1 | > 1
O=C1CCC2(CCCC23OCCO3)N1 (stereo not given) | > 1 | > 1 | > 1
O=C1C=CC2(CCCC23OCCO3)N1C(=O)CCN1CCNCC1 (stereo not given) | > 1 | > 1 | > 1
C=CC(=O)N1CCCC12CCCCC2 | 3.02 | > 5 | > 5
O=C(CCN1CCCC1)N1CCCC12CCCCC2 | > 5 | > 5 | > 5
C=CCN1C(=O)CCC12CCCC21OCCO1 (stereo not given) | > 1 | > 1 | > 1
C=CC(=O)N1C(=O)C=CC12CCCC21OCCO1 (stereo not given) | > 1 | > 1 | > 1
